Assay results as given in US20250236607A1, “CYCLIN-DEPENDENT KINASE 9 (CDK9) DEGRADERS AND METHODS OF USING THEREOF” (OHIO STATE INNOVATION FOUNDATION, priority 2022, published 2025).
≈ marks a conversion by molar mass, not a printed value. Where “and” joins values, the source holds several entries; their conditions need not be identical. Identical values can stand only once. Like-named read-outs stand apart in the source and are kept apart here.

Assays:
[1] = tested on: MOLM13 cells; test: Cytotoxicity against MOLM13 cells; type: cell-based; settings: MOLM13 cells, read-out: IC50
From the text: (§1) Through amide coupling using I-ethyl-3-carbodiimide hydrochloride (EDC.HCl), the alkynyl derivatives of 4.16, 4.29 and 4.30 were synthesized. Using these VIP152-derivatives, degraders 4.31, 4.33 and 4.34 were synthesized using click chemistry. Degrader 4.32 was also synthesized using amide coupling conditions with (1-[Bis([…])methylene]-1H-1,2,3-triazolo[4,5-b]pyridinium 3-oxide hexafluorophosphate (HATU) and the carboxylic acid 4.28. Scheme 7 illustrates the synthesis of this initial series. The series was evaluated for cytotoxicity against MOLM13 cells (IC50) and for their CDK9 degradation potency (DC50). The results are provided in Table 3.

[2] = molecular target: T1, CDK9 (Homo sapiens, UniProt P50750+Q96SW2); test: CDK9 degradation potency (DC50) of VIP152-based degraders; type: cell-based; settings: VIP152-based series
T1 construct: endogenous in cells
T1 sequence (P50750 whole entry): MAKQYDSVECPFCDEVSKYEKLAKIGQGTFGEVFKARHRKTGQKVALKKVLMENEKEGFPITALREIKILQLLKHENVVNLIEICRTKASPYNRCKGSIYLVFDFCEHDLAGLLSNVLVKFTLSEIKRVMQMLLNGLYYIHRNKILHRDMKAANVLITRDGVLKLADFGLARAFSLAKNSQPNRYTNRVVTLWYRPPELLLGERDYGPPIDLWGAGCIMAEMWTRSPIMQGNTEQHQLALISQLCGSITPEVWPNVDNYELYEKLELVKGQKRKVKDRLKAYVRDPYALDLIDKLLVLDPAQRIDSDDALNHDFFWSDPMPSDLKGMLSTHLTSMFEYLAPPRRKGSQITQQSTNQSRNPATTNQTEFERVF
T1 sequence (O60563 whole entry partner): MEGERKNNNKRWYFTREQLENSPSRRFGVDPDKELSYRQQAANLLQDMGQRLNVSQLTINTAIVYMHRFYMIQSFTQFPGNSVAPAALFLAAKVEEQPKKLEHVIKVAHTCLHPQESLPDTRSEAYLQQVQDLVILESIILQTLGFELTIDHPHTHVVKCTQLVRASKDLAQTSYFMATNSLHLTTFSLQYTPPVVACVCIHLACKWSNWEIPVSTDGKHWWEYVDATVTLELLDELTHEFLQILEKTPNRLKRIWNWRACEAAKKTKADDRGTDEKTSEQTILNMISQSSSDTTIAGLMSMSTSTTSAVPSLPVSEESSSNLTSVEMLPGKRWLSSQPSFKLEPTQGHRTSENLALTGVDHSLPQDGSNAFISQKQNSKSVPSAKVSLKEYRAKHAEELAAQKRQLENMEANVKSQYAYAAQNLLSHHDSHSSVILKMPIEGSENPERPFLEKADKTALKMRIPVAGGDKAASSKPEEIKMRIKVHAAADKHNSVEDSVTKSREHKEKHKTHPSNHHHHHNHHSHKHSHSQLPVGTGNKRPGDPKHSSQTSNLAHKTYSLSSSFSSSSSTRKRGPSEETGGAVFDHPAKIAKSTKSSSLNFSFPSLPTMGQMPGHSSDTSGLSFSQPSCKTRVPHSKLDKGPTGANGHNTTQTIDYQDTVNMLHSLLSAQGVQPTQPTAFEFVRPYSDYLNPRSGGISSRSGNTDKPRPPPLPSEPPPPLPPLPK
T1 sequence (Q96SW2 whole entry): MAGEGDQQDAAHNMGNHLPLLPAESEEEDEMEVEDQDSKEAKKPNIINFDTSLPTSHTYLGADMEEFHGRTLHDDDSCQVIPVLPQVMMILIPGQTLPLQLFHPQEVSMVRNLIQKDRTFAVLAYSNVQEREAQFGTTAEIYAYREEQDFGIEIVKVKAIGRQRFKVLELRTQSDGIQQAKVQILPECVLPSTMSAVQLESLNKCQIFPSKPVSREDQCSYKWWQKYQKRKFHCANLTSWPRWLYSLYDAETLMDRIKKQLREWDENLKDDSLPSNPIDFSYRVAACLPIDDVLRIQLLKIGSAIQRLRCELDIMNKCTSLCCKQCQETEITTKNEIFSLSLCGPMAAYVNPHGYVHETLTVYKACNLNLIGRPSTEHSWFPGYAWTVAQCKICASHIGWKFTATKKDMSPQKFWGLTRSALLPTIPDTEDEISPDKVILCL
T1 sequence (Q16531 whole entry partner): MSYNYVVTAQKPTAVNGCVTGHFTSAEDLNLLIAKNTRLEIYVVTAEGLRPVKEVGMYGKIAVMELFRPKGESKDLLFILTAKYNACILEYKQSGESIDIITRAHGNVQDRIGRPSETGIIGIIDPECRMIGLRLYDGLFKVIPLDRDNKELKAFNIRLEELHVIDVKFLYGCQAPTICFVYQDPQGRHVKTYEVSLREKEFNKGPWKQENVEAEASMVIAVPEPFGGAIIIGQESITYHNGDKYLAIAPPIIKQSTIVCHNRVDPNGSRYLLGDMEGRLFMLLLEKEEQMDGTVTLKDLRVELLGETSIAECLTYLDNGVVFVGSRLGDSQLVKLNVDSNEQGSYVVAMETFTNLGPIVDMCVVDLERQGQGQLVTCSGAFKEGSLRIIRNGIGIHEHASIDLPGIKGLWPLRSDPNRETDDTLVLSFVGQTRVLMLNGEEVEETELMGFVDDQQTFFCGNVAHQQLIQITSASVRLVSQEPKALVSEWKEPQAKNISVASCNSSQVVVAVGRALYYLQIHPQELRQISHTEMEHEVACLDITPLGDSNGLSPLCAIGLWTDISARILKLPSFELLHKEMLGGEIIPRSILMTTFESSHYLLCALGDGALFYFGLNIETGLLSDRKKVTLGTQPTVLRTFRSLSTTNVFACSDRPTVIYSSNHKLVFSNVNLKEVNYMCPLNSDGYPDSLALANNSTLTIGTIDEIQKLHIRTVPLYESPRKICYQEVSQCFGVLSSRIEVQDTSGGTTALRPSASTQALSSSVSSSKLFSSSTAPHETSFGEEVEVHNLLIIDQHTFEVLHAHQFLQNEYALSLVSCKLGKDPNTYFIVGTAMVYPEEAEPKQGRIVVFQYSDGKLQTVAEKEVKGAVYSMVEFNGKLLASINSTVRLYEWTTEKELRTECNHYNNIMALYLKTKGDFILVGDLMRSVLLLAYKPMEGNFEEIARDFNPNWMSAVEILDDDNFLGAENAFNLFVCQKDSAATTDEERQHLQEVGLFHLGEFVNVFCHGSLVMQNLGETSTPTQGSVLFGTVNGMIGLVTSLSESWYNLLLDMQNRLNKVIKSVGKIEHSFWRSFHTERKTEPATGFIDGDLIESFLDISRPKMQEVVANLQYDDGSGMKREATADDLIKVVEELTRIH
From the text: as §1

[3] = Chromatographic log D determination (log k′80); type: physicochemical; settings: chromatographic log D, PLRP-S column, pH 7.72
Description: Chromatographic Log D Determination. Test samples were prepared from 10 mM stock solutions in DMSO, to make 122 μM solutions in acetonitrile. Retention times were determined on a Shimadzu High Performance Liquid Chromatography (HPLC) system with Agilent PLRP-S column, 100 Å, 5 um particle size, 50×4.6 mm (part no.: PL1512-1500) with 1 mL/min flow rate. A 65 mM aqueous solution of ammonium acetate was prepared in water and diluted with acetonitrile to give 0.1% ammonium acetate 20:80 acetonitrile solution with pH 7.72. Eluents were detected with UV spectrophotometry at 337 nm. As a standard set, the retention times of β-estradiol, nifedipine, quinoline, phenol and 2-nitrophenol were determined (log k′80) and the dead time was extrapolated based on the reported log k′80 values originally reported by Caron et. al (log k′80*). The average value of the dead time for the standard set was 0.3001 minutes. Therefore, for consistency, 0.3 minutes was used as the dead time for all test samples. Experiments were performed in triplicate with a maximum percent standard deviation of 6.85%.

[4] = Kinetic solubility assay; settings: for solubility at 1.5 h: Solubility (μM); for solubility at 1.5 h / Solubility: kinetic solubility, PBS pH 7.4
Description: Kinetic Solubility Assay. Kinetic solubility (KS) was measured according to Millipore protocol PC2445 EN00. Test compounds were weighed and diluted with DMSO to 10 mM. From the stock solutions as well as blank (100% DMSO) was taken 17.5 μL and diluted to 500 μM with 332.5 μL of 100 mM phosphate Buffered Saline (PPBS) at pH 7.4 in a 96-well quartz plate. From the 500 μM solutions was taken 150 μL and dispensed into a 96-well Millipore filter plate (Product number: MSSLBPC10). In the quartz plate, serial dilutions were performed down to 0.5 μM using the 100 mM PBS solution, leaving 100 μL of each test sample at 11 different concentrations, representing standards. These steps were performed in triplicate, at minimum, for each test compound. Both plates were shaken on an orbital shaker at 150 rpm for 1.5 hours. The contents of the filter plate were filtered and 100 μL of the filtrate from each well was dispensed into the quartz plate containing standards. The quartz plate was then analyzed using a UV plate reader where absorbance was measured at the relevant wavelength for each compound. After blank subtraction, for each test sample, solubility was determined based on the optical density of filtered samples and the equations derived from the corresponding linear standard curve.

[5] = tested on: MV411 cells; test: MTS cytotoxicity assay against MV411 cells; type: cell-based; settings: Homo sapiens, MV4-11
Description: The obtained compounds were tested in biological experiments to measure their potency in inhibiting the growth of AML cells and in their degradation of CDK9. These measurements are reported as half-maximum growth inhibitory and half-maximum degradation concentrations, IC50s and DC50s, respectively. Maximum percent degradation (Dmax) values were also obtained during the CDK9 degradation assessments. The common MTS assay was used to acquire the IC50 values, while the DC50 values were obtained using an automated western blot experiment. These values are presented in Table 2, along with pIC50 (log(nM IC50)) to more accurately reflect the differences/lack thereof in in vitro cytotoxicity. The notation “N:N*” represents the number of linker atoms on each side of the rigid triazole ring for a given degrader. Predicted log D values, calculated using the ChemAxon […], are also provided for each degrader. To characterize the physicochemical properties of the new degrader series, two additional assays were performed: a kinetic aqueous solubility assay and the chromatographic log D experiment described earlier. Aqueous solubility is shown in μM while experimentally determined log D is shown as log k′80. Details regarding the execution of each experiment are provided below.

[6] = Homo sapiens, MOLM-13, cytotoxicity
[7] = phosphate buffered saline, pH 7.4, aqueous buffer, kinetic from dmso stock

Row | Compound | DC50 [2] | logk′80 [3] | solubility at 1.5 h [4, 7] | IC50 [1, 6] | also measured
1 | O=C(NC1CCNCC1)c1n[nH]cc1NC(=O)c1c(Cl)cccc1Cl [AT7519, 4-(2,6-dichlorobenzamido)-N-(piperidin-4-yl)-1H-pyrazole-3-carboxamide, reference compound] | – | – | – | – | EC50 ([5]; Table 1, cytotoxicity MV411 cells): 200 nM; IC50 ([5]; defined as log(nM IC50), MV411, read-out: pIC50 (converted)): 126 nM; IC50 ([5]; growth inhibition, MV411 cells, MTS, read-out: IC50): 119 nM
2 | COc1cc(F)ccc1-c1cc(Nc2cc(CS(C)(=N)=O)ccn2)ncc1F (racemic) [Compound 4.16, ((2-((5-fluoro-4-(4-fluoro-2-methoxyphenyl)pyridin-2-yl)amino)pyridin-4-yl)methyl)(imino)(methyl)4-sulfa-none, reference compound] | – | 0.15 | 403 µM (≈ 163 µg/mL) | 60 nM | –
3 | COc1cc(F)ccc1-c1cc(Nc2cc(CS(C)(=O)=NC(=O)CCCCc3cn(CCCOc4cccc5c4C(=O)N(C4CCC(=O)NC4=O)C5=O)nn3)ccn2)ncc1F (stereo not shown) [Compound 4.31, 5-(1-(3-((2-(2,6-dioxopiperidin-3-yl)-1,3-dioxoisoindolin-4-yl)oxy)propyl)-1H-1,2,3-triazol-4-yl)-N-(((2-((5-fluoro-4-(4-fluoro-2-methoxyphenyl)pyridin-2-yl)amino)pyridin-4-yl)methyl)(methyl)(oxo)-16-sulfaneylidene)pentanamide] | – | 0.17 | < 5 µM | 170 nM | –
4 | COc1cc(F)ccc1-c1cc(Nc2cc(CS(C)(=O)=NC(=O)CN3CCC(N4CCC(C#Cc5ccc6c(c5)CN(C5CCC(=O)NC5=O)C6=O)CC4)CC3)ccn2)ncc1F (stereo not shown) [Compound 4.103, 2-(4-{2-[2-(2,6-dioxopiperidin-3-yl)-1-oxo-2,3-dihydro-1H-isoindol-5-yl]ethynyl}-[1,4′-bipiperidin]-1′-yl)-N-{[(2-{[5-fluoro-4-(4-fluoro-2-methoxyphenyl)pyridin-2-yl]amino}pyridin-4-yl)methyl](methyl)oxo-26-sulfanylidene}acetamide] | – | 0.15 | – | – | IC50 ([1]; cytotoxicity): 120 nM; Solubility [4]: 29 µM and 29.1 µM
5 | COc1cc(F)ccc1-c1cc(Nc2cc(CS(C)(=O)=NC(=O)CCc3cn(CCCOc4cccc5c4C(=O)N(C4CCC(=O)NC4=O)C5=O)nn3)ccn2)ncc1F (stereo not shown) [Compound 4.33, 3-(1-(3-((2-(2,6-dioxopiperidin-3-yl)-1,3-dioxoisoindolin-4-yl)oxy)propyl)-1H-1,2,3-triazol-4-yl)-N-(((2-((5-fluoro-4-(4-fluoro-2-methoxyphenyl)pyridin-2-yl)amino)pyridin-4-yl)methyl)(methyl)(oxo)-16-sulfaneylidene)propenamide] | 170 nM | 0.15 | – | 190 nM | –
6 | COc1cc(F)ccc1-c1cc(Nc2cc(CS(C)(=O)=NC(=O)C3CCCN(Cc4cn(CC(=O)N5CCN(CCCc6cccc7c6C(=O)N(C6CCC(=O)NC6=O)C7=O)CC5)nn4)C3)ccn2)ncc1F (stereo not shown) [Compound 4.74, 1-({1-[2-(4-{3-[2-(2,6-dioxopiperidin-3-yl)-1,3-dioxo-2,3-dihydro-1H-isoindol-4-yl]propyl}piperazin-1-yl)-2-oxoethyl]-1H-1,2,3-triazol-4-yl}methyl)-N-{[(2-{[5-fluoro-4-(4-fluoro-2-methoxyphenyl)pyridin-2-yl]amino}pyridin-4-yl)methyl](methyl)oxo-λ^6-sulfanylidene}piperidine-3-carboxamide] | – | 0.15 | – | – | –
7 | COc1cc(F)ccc1-c1cc(Nc2cc(CS(C)(=O)=NC(=O)CN3CCC(N4CCN(CC#Cc5ccc6c(c5)CN(C5CCC(=O)NC5=O)C6=O)CC4)CC3)ccn2)ncc1F (stereo not shown) [Compound 4.104, 2-[4-(4-{3-[2-(2,6-dioxopiperidin-3-yl)-1-oxo-2,3-dihydro-1H-isoindol-5-yl]prop-2-yn-1-yl}piperazin-1-yl)piperidin-1-yl]-N-{[(2-{[5-fluoro-4-(4-fluoro-2-methoxyphenyl)pyridin-2-yl]amino}pyridin-4-yl)methyl](methyl)oxo-16-sulfanylidene}acetamide] | – | – | 51.6 µM (≈ 46.1 µg/mL) | > 1000 nM | IC50 ([1]; cytotoxicity): 1100 nM; solubility kinetic at 1.5 h [4, 7]: > 50 µM
8 | COc1cc(F)ccc1-c1cc(Nc2cc(CS(C)(=O)=NC(=O)CCCCCCCCCCNC(=O)CNc3cccc4c3C(=O)N(C3CCC(=O)NC3=O)C4=O)ccn2)ncc1F (stereo not shown) [Compound 4.32, 11-(2-((2-(2,6-dioxopiperidin-3-yl)-1,3-dioxoisoindolin-4-yl)amino)acetamido)-N-(((2-((5-fluoro-4-(4-fluoro-2-methoxyphenyl)pyridin-2-yl)amino)pyridin-4-yl)methyl)(methyl)(oxo)-16-sulfaneylidene)undecanamide] | 120 nM | 0.28 | – | 140 nM | –

The next lines start with results.

Row | DC50 [2] | logk′80 [3] | solubility at 1.5 h [4, 7] | Compound | IC50 [1, 6] | also measured
9 | 2630 nM | 0.13 | 3.5 µM (≈ 3.57 µg/mL) | COc1cc(F)ccc1-c1cc(Nc2cc(CS(C)(=O)=NC(=O)C3CCCN(Cc4cn(CC(=O)N5CCN(CCCc6cccc7c6C(=O)N(C6CCC(=O)NC6=O)C7=O)CC5)nn4)C3)ccn2)ncc1F (stereo not shown) [Compound 4.73, 1-({1-[2-(4-{3-[2-(2,6-dioxopiperidin-3-yl)-1,3-dioxo-2,3-dihydro-1H-isoindol-4-yl]propyl}piperazin-1-yl)-2-oxoethyl]-1H-1,2,3-triazol-4-yl}methyl)-N-{[1 (2-{[5-fluoro-4-(4-fluoro-2-methoxyphenyl)pyridin-2-yl]amino}pyridin-4-yl)methyl](methyl)oxo-λ^6-sulfanylidene}piperidine-3-carboxamide] | 700 nM | –
10 | 260 nM | – | 8.9 µM (≈ 8.46 µg/mL) | COc1cc(F)ccc1-c1cc(Nc2cc(CS(C)(=O)=NC(=O)C3CCCN(Cc4cn(CC5CCN(c6cccc7c6C(=O)N(C6CCC(=O)NC6=O)C7=O)CC5)nn4)C3)ccn2)ncc1F (stereo not shown) [Compound 4.77, 1˜ {[1-({1-[2-(2,6-dioxopiperidin-3-yl)-1,3-dioxo-2,3-dihydro-1H-isoindol-4-yl]piperidin-4-yl}methyl)-1H-1,2,3-triazol-4-yl]methyl}-N-{[(2-{[5-fluoro-4-(4-fluoro-2-methoxyphenyl)pyridin-2-yl]amino}pyridin-4-yl)methyl](methyl)oxo-λ^6-sulfanylidene}piperidine-3-carboxamide] | 640 nM | –
11 | 930 nM | – | ~15 µM (≈ 13.8 µg/mL) | COc1cc(F)ccc1-c1cc(Nc2cc(CS(C)(=O)=NC(=O)CN3CCN(Cc4cn(C5CN(c6cccc7c6C(=O)N(C6CCC(=O)NC6=O)C7=O)C5)nn4)CC3)ccn2)ncc1F (stereo not shown) [Compound 4.50, 2-(4-((1-(1-(2-(2,6-dioxopiperidin-3-yl)-1,3-dioxoisoindolin-4-yl)azetidin-3-yl)-11H-1,2,3-triazol-4-yl)methyl)piperazin-1-yl)-N-(((2-((5-fluoro-4-(4-fluoro-2-methoxyphenyl)pyridin-2-yl)amino)pyridin-4-yl)methyl)(methyl)(oxo)-16-sulfaneylidene)acetamide] | 1540 nM | Solubility [4]: 13.9 µM (≈ 12.8 µg/mL)
12 | 170 nM | – | 1.8 µM (≈ 1.83 µg/mL) | COc1cc(F)ccc1-c1cc(Nc2cc(CS(C)(=O)=NC(=O)CN3CCC(c4cn(CC(=O)N5CCN(CC#Cc6cccc7c6C(=O)N(C6CCC(=O)NC6=O)C7=O)CC5)nn4)CC3)ccn2)ncc1F (stereo not shown) [Compound 4.61, 2-(4-(1-(2-(4-(3-(2-(2,6-dioxopiperidin-3-yl)-1,3-dioxoisoindolin-4-yl)prop-2-yn-1-yl)piperazin-1-yl)-2-oxoethyl)-1H-1,2,3-triazol-4-yl)piperidin-1-yl)-N-(((2-((5-fluoro-4-(4-fluoro-2-methoxyphenyl)pyridin-2-yl)amino)pyridin-4-yl)methyl)(methyl)(oxo)-16-sulfaneylidene)acetamide] | 340 nM | –
